# Test results from ChEMBL document CHEMBL3885861, “Open TG-GATES”.
# Species on record: Rattus norvegicus
# Assay: Open TG-GATES - Regimen: Daily Repeat
# Format: toxicity, organism-based, Sprague-Dawley
# Set-up: regimen Daily Repeat, gender Male, age 6 weeks
# Conditions: in vivo, po, route gavage; for APTT / Bas / Eos / Fbg / Hb / Ht / Lym / MCH / MCHC / MCV / Mono / Neu / PT / Plat / RBC / Ret / WBC: tissue Blood; for KIDNEY_L / KIDNEY_R / KIDNEY_TOTAL: tissue Kidney; for LIVER: tissue Liver; for A/G / ALP / ALT / AST / BUN / CRE / Ca / Cl / DBIL / GLC / IP / K / LDH / Na / PL / RALB / TBIL / TC / TG / TP / gamma-GTP: tissue Plasma
# [1] = 1 mg/kg, […], dose level Middle, time 14 day
# [2] = 1 mg/kg, […], dose level Middle, time 28 day
# [3] = 1 mg/kg, […], dose level Middle, time 7 day
# [4] = 3 mg/kg, 72 h, dose level High, time 3 day
# [5] = 3 mg/kg, […], dose level High, time 7 day
# [6] = 3 mg/kg, […], dose level High, time 14 day
smiles,measurement,setting,value
CN1C(C(=O)Nc2ccccn2)=C(O)c2sc(Cl)cc2S1(=O)=O [LORNOXICAM],TERMINAL_BW,[1],307.1 g
same,TERMINAL_BW,[2],392.3 g
same,APTT,[3],18.4 s
same,Bas,[3],0.8%
same,Eos,[3],1%
same,Fbg,[3],239.8 mg/dL
same,Hb,[3],12.9 g/dL
same,Ht,[3],38.3%
same,Lym,[3],71.6%
same,MCH,[3],20.9 pg
same,MCHC,[3],33.6%
same,MCV,[3],62.1 fL
same,Mono,[3],2.8%
same,Neu,[3],23.6%
same,PT,[3],11.5 s
same,Plat,[3],139.1 x10_4/uL
same,RBC,[3],617 x10_4/ul
same,Ret,[3],5.7%
same,WBC,[3],135.6 x10_2/uL
same,APTT,[1],20.3 s
same,Bas,[1],0.8%
same,Eos,[1],0.8%
same,Fbg,[1],291.6 mg/dL
same,Hb,[1],12.9 g/dL
same,Ht,[1],38.8%
same,Lym,[1],62.2%
same,MCH,[1],19.8 pg
same,MCHC,[1],33%
same,MCV,[1],59.9 fL
same,Mono,[1],3.8%
same,Neu,[1],31.8%
same,PT,[1],11.4 s
same,Plat,[1],151.7 x10_4/uL
same,RBC,[1],648 x10_4/ul
same,Ret,[1],5.7%
same,WBC,[1],137.4 x10_2/uL
same,APTT,[2],18.9 s
same,Bas,[2],0.8%
same,Eos,[2],1%
same,Fbg,[2],247.2 mg/dL
same,Hb,[2],15.2 g/dL
same,Ht,[2],44.2%
same,Lym,[2],71%
same,MCH,[2],19.6 pg
same,MCHC,[2],34.2%
same,MCV,[2],57.1 fL
same,Mono,[2],2.5%
same,Neu,[2],24%
same,PT,[2],11.7 s
same,Plat,[2],115.1 x10_4/uL
same,RBC,[2],775.8 x10_4/ul
same,Ret,[2],2.8%
same,WBC,[2],161.4 x10_2/uL
same,KIDNEY_L,[3],1.3 g
same,KIDNEY_R,[3],1.3 g
same,KIDNEY_TOTAL,[3],2.6 g
same,KIDNEY_L,[1],1.5 g
same,KIDNEY_R,[1],1.4 g
same,KIDNEY_TOTAL,[1],2.9 g
same,KIDNEY_L,[2],1.5 g
same,KIDNEY_R,[2],1.5 g
same,KIDNEY_TOTAL,[2],3.1 g
same,LIVER,[3],12.7 g
same,LIVER,[1],12.3 g
same,LIVER,[2],15.1 g
same,A/G,[3],1.4
same,ALP,[3],831.8 IU/L
same,ALT,[3],41.6 IU/L
same,AST,[3],75.6 IU/L
same,BUN,[3],13.4 mg/dL
same,CRE,[3],0.4 mg/dL
same,Ca,[3],10.6 mg/dL
same,Cl,[3],104 meq/L
same,DBIL,[3],0.086 mg/dL
same,GLC,[3],194 mg/dL
same,IP,[3],7.4 mg/dL
same,K,[3],4.1 meq/L
same,LDH,[3],210.2 IU/L
same,Na,[3],141.2 meq/L
same,PL,[3],136 mg/dL
same,RALB,[3],3.2 g/dL
same,TBIL,[3],0.1 mg/dL
same,TC,[3],70.6 mg/dL
same,TG,[3],93 mg/dL
same,TP,[3],5.5 g/dL
same,gamma-GTP,[3],1.2 IU/L
same,A/G,[1],1.2
same,ALP,[1],815.8 IU/L
same,ALT,[1],31.6 IU/L
same,AST,[1],79 IU/L
same,BUN,[1],21.8 mg/dL
same,CRE,[1],0.5 mg/dL
same,Ca,[1],10.3 mg/dL
same,Cl,[1],104.6 meq/L
same,DBIL,[1],0.086 mg/dL
same,GLC,[1],189.6 mg/dL
same,IP,[1],7.1 mg/dL
same,K,[1],4 meq/L
same,LDH,[1],225 IU/L
same,Na,[1],141.8 meq/L
same,PL,[1],131.2 mg/dL
same,RALB,[1],2.9 g/dL
same,TBIL,[1],0.1 mg/dL
same,TC,[1],65.6 mg/dL
same,TG,[1],106.2 mg/dL
same,TP,[1],5.3 g/dL
same,gamma-GTP,[1],2 IU/L
same,A/G,[2],1.3
same,ALP,[2],589.2 IU/L
same,ALT,[2],31.8 IU/L
same,AST,[2],76.2 IU/L
same,BUN,[2],19 mg/dL
same,CRE,[2],0.5 mg/dL
same,Ca,[2],10.2 mg/dL
same,Cl,[2],104 meq/L
same,DBIL,[2],0.0925 mg/dL
same,GLC,[2],206.5 mg/dL
same,IP,[2],6.3 mg/dL
same,K,[2],3.8 meq/L
same,LDH,[2],194.2 IU/L
same,Na,[2],141.8 meq/L
same,PL,[2],142.8 mg/dL
same,RALB,[2],3.3 g/dL
same,TBIL,[2],0.2 mg/dL
same,TC,[2],69.8 mg/dL
same,TG,[2],150.2 mg/dL
same,TP,[2],5.8 g/dL
same,gamma-GTP,[2],1.5 IU/L
same,TERMINAL_BW,[4],235 g
same,APTT,[4],18.3 s
same,Bas,[4],0.8%
same,Eos,[4],0.6%
same,Fbg,[4],354.8 mg/dL
same,Hb,[4],11.6 g/dL
same,Ht,[4],35.4%
same,Lym,[4],56.8%
same,MCH,[4],20.5 pg
same,MCHC,[4],32.9%
same,MCV,[4],62.4 fL
same,Mono,[4],6%
same,Neu,[4],29.2%
same,PT,[4],11.4 s
same,Plat,[4],121.4 x10_4/uL
same,RBC,[4],568.2 x10_4/ul
same,Ret,[4],6.5%
same,WBC,[4],164.3 x10_2/uL
same,KIDNEY_L,[4],1.2 g
same,KIDNEY_R,[4],1.1 g
same,KIDNEY_TOTAL,[4],2.3 g
same,LIVER,[4],12 g
same,A/G,[4],0.9
same,ALP,[4],648.6 IU/L
same,ALT,[4],30 IU/L
same,AST,[4],57.4 IU/L
same,BUN,[4],12.4 mg/dL
same,CRE,[4],0.4 mg/dL
same,Ca,[4],10.5 mg/dL
same,Cl,[4],103.8 meq/L
same,DBIL,[4],0.07 mg/dL
same,GLC,[4],194 mg/dL
same,IP,[4],8 mg/dL
same,K,[4],4.4 meq/L
same,LDH,[4],163 IU/L
same,Na,[4],140.8 meq/L
same,PL,[4],142.8 mg/dL
same,RALB,[4],2.4 g/dL
same,TBIL,[4],0.1 mg/dL
same,TC,[4],70.8 mg/dL
same,TG,[4],131.6 mg/dL
same,TP,[4],4.9 g/dL
same,gamma-GTP,[4],1.4 IU/L
same,TERMINAL_BW,[5],246.6 g
same,APTT,[5],18 s
same,Bas,[5],1%
same,Eos,[5],1%
same,Fbg,[5],362 mg/dL
same,Hb,[5],10.9 g/dL
same,Ht,[5],32.8%
same,Lym,[5],56%
same,MCH,[5],20.2 pg
same,MCHC,[5],33.2%
same,MCV,[5],61 fL
same,Mono,[5],4.7%
same,Neu,[5],36.3%
same,PT,[5],11.1 s
same,Plat,[5],232.1 x10_4/uL
same,RBC,[5],537.7 x10_4/ul
same,Ret,[5],6%
same,WBC,[5],243.6 x10_2/uL
same,KIDNEY_L,[5],1.2 g
same,KIDNEY_R,[5],1.2 g
same,KIDNEY_TOTAL,[5],2.3 g
same,LIVER,[5],11.3 g
same,A/G,[5],0.8
same,ALP,[5],606 IU/L
same,ALT,[5],23.7 IU/L
same,AST,[5],58.3 IU/L
same,BUN,[5],9 mg/dL
same,CRE,[5],0.4 mg/dL
same,Ca,[5],10.3 mg/dL
same,Cl,[5],105.3 meq/L
same,DBIL,[5],0.0567 mg/dL
same,GLC,[5],176 mg/dL
same,IP,[5],7.7 mg/dL
same,K,[5],4.3 meq/L
same,LDH,[5],206.7 IU/L
same,Na,[5],141.3 meq/L
same,PL,[5],147 mg/dL
same,RALB,[5],2.4 g/dL
same,TBIL,[5],0.1 mg/dL
same,TC,[5],73.3 mg/dL
same,TG,[5],114.7 mg/dL
same,TP,[5],5.3 g/dL
same,gamma-GTP,[5],2 IU/L
same,GLC,[6],178 mg/dL
same,gamma-GTP,[6],1 IU/L
